We go through one molecule from paper PMC11056994, “Potentiating Activity of GmhA Inhibitors on Gram-Negative Bacteria” (Journal of Medicinal Chemistry, 2024).

Usually EC50 stands for the concentration needed to bring the measured effect to its halfway point. By CC50 is commonly meant the concentration that lowers cell viability or growth by half. A higher CC50 goes with lower toxicity to the cells. Usually MIC stands for the lowest concentration found to suppress growth.

Format in all cases: cell-based
The subject of series [1] is K. pneumoniae S3 LPS heptosylation. The series is described as follows: LPS heptosylation inhibition in clinical isolate K. pneumoniae S3. To be noted: Klebsiella pneumoniae, read-out: EC50 of LPS heptosylation. On the procedure:
(§1) Compound 17 was also tested against clinical isolates of E. coli,[…], and K. pneumoniae for its ability to block LPS heptosylation (EC50). As detailed in Table 3, 17 in the presence of the UhpT inducer glucose-6-phosphate (100 μM) is a specific inhibitor of LPS heptosylation against various strains, including multiresistant clinical isolates expressing ESBL, AmpC, or NDM-1.
(§2) The compounds to be tested were prepared in deionized water/DMSO (50/50) solutions and added (25 μL) in sterile culture microtubes. The test bacterial isolate was isolated on tryptic soy agar (TSA) overnight. Isolated colonies were cultured in 10 mL of LB medium at 37 °C up to an OD of typically 0.15. These exponentially growing bacteria were finally diluted to 5 × 10^5 cfu/mL and added in each well (225 μL) for incubation with the compounds at 37 °C for approximately 5 h, up to an OD of ≈0.2–0.4. Some test compounds, e.g., phospho-sugars are actively transported into the bacterial cytosol via the phospho-sugar transporter UhpT (Figure S3). […] The resulting supernatant, containing LPS, was finally analyzed by SDS-PAGE electrophoresis. […] Gels were finally washed in deionized water, numerized with a Samsung PL51 camera, and analyzed by ImageJ software. […]

Series [2] relates to E. coli C7 (018:K1:H7) LPS biosynthesis. The series is described as follows: Inhibition of bacterial LPS biosynthesis (silver-stained LPS SDS-PAGE). To be noted: Escherichia coli; E. coli C7 LPS biosynthesis by SDS-PAGE; mean ± SD of 3 experiments for 17 and 24, n = 1 for others; read-out: EC50. The method, then: The compounds to be tested were prepared in deionized water/DMSO (50/50) solutions and added (25 μL) in sterile culture microtubes. The test bacterial isolate was isolated on tryptic soy agar (TSA) overnight. Isolated colonies were cultured in 10 mL of LB medium at 37 °C up to an OD of typically 0.15. These exponentially growing bacteria were finally diluted to 5 × 10^5 cfu/mL and added in each well (225 μL) for incubation with the compounds at 37 °C for approximately 5 h, up to an OD of ≈0.2–0.4. Some test compounds, e.g., phospho-sugars are actively transported into the bacterial cytosol via the phospho-sugar transporter UhpT (Figure S3). 2.5 μL portion of a 10 mM water solution of glucose-6-phosphate (G6P, 100 μM final concentration, from Sigma) was added in the culture tube in order to induce UhpT expression. LPS extraction: Bacterial cultures were normalized via OD determination, pelleted, and washed with 1 mL of phosphate-buffered-saline (PBS). The pellets were then denatured for 10 min at 95–100 °C in 50 μL of 0.2% sodium dodecyl sulfate (SDS), β-mercaptoethanol 1%, glycerol 36%, Tris 30 mM, pH 7.4, and bromophenol blue 0.001%. Samples were cooled down to room temperature, supplemented with 1.5 μL of proteinase K at 20 mg/mL, incubated for 1 h at 55 °C, and centrifuged for 30 min at 13,000 rpm at 25 °C. The resulting supernatant, containing LPS, was finally analyzed by SDS-PAGE electrophoresis. LPS SDS-PAGE electrophoresis: Polyacrylamide gels (16%/4% acrylamide for separation and concentration, respectively) were prepared, loaded with 8 μL of LPS extracts, and migrated. Silver staining: Gels were incubated overnight in 5% acetic acid/40% ethanol/deionized water, treated by 1% periodic acid/5% acetic acid for 15 min, washed 4 times for 10 min in deionized water, and finally incubated for 18 min in the dark in a silver nitrate solution composed of 56 mL of 0.1 M NaOH (56 mL), 33% aq ammonia (4 mL), 5% AgNO3 (45 mL), and deionized water (195 mL). Gels were then washed extensively in deionized water for 30 min and incubated for 10–15 min (up to LPS band appearance) in the revelation mix composed of 300 mL of deionized water (300 mL), 36.5% formaldehyde (0.3 mL, Fluka), and 2.3 M citric acid (0.1 mL). The revelation was stopped by incubating the gels in 10% acetic acid for 5 min. Gels were finally washed in deionized water, numerized with a Samsung PL51 camera, and analyzed by ImageJ software. The percentage of inhibition of LPS heptosylation was defined as the relative area of the Re-LPS band compared to the cumulated areas of Re-LPS and Core-LPS bands.

Series [3] concerns E. coli C7 (O18:K1:H7). In words: Time-kill kinetics of rifampicin in combination with compound 17. The method, then:
Rifampicin (Fluka) was diluted in DMSO, and the compound to be tested was diluted in water from 50 mM stock solution in 50 mM HEPES buffer, pH 7.4. Ten microliter of DMSO was distributed in sterile 1.5 mL polypropylene microtubes (Eppendorf). 2.5 μL of compound dilution or water, 2.5 μL of Rifampicin or DMSO, 2.5 μL of 10 mM G6P in water (100 μM final concentration), and 230 μL of LB were added to the microtubes. E. coli C7 (O18:K1:H7) was grown in 5 mL of LB broth at 37 °C until mid-log phase. The suspension was then diluted in LB to obtain a 100× inoculum of 5 × 10^7 cfu/mL, 2.5 μL of which were added to each microtube (5 × 10^5 cfu/mL final inoculum). The microtubes were incubated at 37 °C, and aliquots of 10 μL were sampled at 0, 2, 4, 6, 8, and 24 h for bacterial enumeration in duplicate.

Series [4] has as its system E. coli S1 LPS heptosylation. In words: LPS heptosylation inhibition in clinical isolate E. coli S1. As to conditions: Escherichia coli; E. coli S1, ESBL; 100 μM glucose-6-phosphate; n = 1. The method, then: as §1, §2
A short description of another series: HepG2 cytotoxicity. As to conditions: human, HepG2 cells; n = 2. The method, then:
HepG2 cells (LGC Promochem, ref HB-8065) in EMEM medium supplemented with fetal bovine serum (10%), Ampicillin (100 mg/L), and Streptomycin (100 mg/L) were plated on cell culture plates (Costar 3596, 2 × 10^4 cells/well) and incubated overnight at 37 °C in 5% CO2. The culture medium was then aspirated and replaced by supplemented EMEM (210 μL including 2% DMSO) containing dilutions of compounds. Plates were incubated overnight at 37 °C in 5% CO2. Cell viability was determined by the Celltiter Aqueous One Cell Proliferation Assay (G3581–80, Promega) according to the manufacturer’s recommendations, using a Multiskan absorption reader (490 nm).

For series [5], the system named is E. coli C7 (O18:K1:H7). The series is described as follows: MIC determination of antibiotics combined with a GmhA inhibitor. As to conditions: 17 at 27 mg/L (100 μM), glucose-6-phosphate 100 μM, E. coli C7. On the procedure: (§3) The compound to be tested was diluted in 50 mM HEPES buffer (pH 7.4) from 10 mM stock solution in DMSO. Five microliters of compound dilution or buffer were distributed in a sterile clear round-bottom 96-well polystyrene microplate (Corning). Five microliters of serial 2-fold dilutions of reference antibiotics [Erythromycin (Fluka), Rifampicin (Fluka)] in DMSO were added. An exponentially growing preculture of E. coli C7 (O18:K1:H7) in LB was diluted to 10^4 cfu/mL and supplemented with 100 μM G6P, and 90 μL of this suspension were added to the microplates. After overnight incubation at 37 °C, the MIC of the antibiotics were determined for each test compound concentration as the lowest antibiotic concentration for which no bacterial pellet is visible without magnification.

The subject of series [6] is E. cloacae S2 LPS heptosylation. In words: LPS heptosylation inhibition in clinical isolate E. cloacae S2. To be noted: Enterobacter cloacae; E. cloacae S2, AmpC; 100 μM glucose-6-phosphate; n = 1. On the procedure: as §1, §2
Another series has as its system E. coli C7. The series is described as follows: MIC of the compounds alone on E. coli C7. As to conditions: compound alone, n = 2, read-out: MIC E. coli C7. The method, then: Then, we investigated the cytotoxicity and the ability of such inhibitors to potentiate the antimicrobial activity of macrolide and rifamycin antibiotics.
as §3

Like-named read-outs stand apart in the source and are kept apart here. Some results are limits rather than exact numbers.

With `O=CN(O)C[C@H](O)[C@H](O)[C@H](O)COP(=O)(O)O` [Compound 17], the EC50 in series [1] worked out at 21 µM; in series [2] it was 20 ± 3 µM; in series [4] it was 21 µM; in series [6] it was 18 µM. Moreover, the “effect on bacterial growth, compound alone” value in the series with E. coli C7 (O18:K1:H7) [3] (17 300 μM alone or rifampicin 1 mg/L alone) is recorded as “did not alter at all the bacterial growth”. Further, the “bacterial counts at 24 h” value in the series on E. coli C7 (O18:K1:H7) [3] (17 (300 μM) combined with rifampicin (1 mg/L), 24 h) is listed as “no detectable counts”. In the series on E. coli C7 (O18:K1:H7) [3] (17 (300 μM) combined with rifampicin (1 mg/L), in less than 6 h), the “reduction of the bacterial inoculum” value is recorded as “more than 3 log”. Besides, the CC50 in “HepG2 cytotoxicity” was > 1000 µM. The potentiation of erythromycin with E. coli C7 (O18:K1:H7) [5] is listed as 32 fold. For the same molecule, the potentiation of rifampicin with E. coli C7 (O18:K1:H7) [5] stood at 16 fold. Further, the MIC is > 1000 µM in the series with E. coli C7 (Escherichia coli, C7) and >1000 µM with E. coli C7.
